Measured values published in patent publication US6506766B1 (Abbott Laboratories, priority 1998, dated 2003).
Where two headings read alike, the source gives them in different places.

Legend:
[1] = molecular target: T1, human glucocorticoid receptor-α [GRX] isoform (Homo sapiens, UniProt P04150); experiment: Radioligand binding with human glucocorticoid receptor cytosol ([3H]-dexamethasone competition); details: read-out: Ki (nM) GR
T1 construct: host or cells: insect SF21 cells (baculovirus)
T1 sequence (P04150 1-777): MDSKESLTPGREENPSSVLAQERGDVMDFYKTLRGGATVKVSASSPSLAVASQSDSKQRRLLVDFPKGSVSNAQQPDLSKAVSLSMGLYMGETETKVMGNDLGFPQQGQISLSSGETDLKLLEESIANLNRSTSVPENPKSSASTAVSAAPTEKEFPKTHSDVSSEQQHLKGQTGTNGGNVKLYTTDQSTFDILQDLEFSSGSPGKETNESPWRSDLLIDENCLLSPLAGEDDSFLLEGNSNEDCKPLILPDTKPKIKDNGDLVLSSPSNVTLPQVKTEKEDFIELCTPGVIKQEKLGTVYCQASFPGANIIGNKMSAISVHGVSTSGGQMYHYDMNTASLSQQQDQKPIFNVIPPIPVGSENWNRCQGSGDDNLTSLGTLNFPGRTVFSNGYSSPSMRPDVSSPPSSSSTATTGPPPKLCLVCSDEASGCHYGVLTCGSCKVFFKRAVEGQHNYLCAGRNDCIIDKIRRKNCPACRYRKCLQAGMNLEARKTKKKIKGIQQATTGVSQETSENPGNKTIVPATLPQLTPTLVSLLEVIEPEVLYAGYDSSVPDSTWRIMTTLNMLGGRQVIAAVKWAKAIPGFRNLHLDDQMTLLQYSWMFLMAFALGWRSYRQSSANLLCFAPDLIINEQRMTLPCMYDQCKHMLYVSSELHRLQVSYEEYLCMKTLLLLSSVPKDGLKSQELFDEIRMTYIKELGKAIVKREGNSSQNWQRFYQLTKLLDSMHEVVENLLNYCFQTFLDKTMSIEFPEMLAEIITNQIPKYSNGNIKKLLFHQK

[2] = molecular target: T2, human progesterone receptor-A [PRA] isoform (Homo sapiens, UniProt P06401); experiment: Radioligand binding with human progesterone receptor cytosol ([3H]-progesterone competition); details: read-out: Ki (nM) PR
T2 construct: host or cells: insect SF21 cells (baculovirus)
T2 sequence (P06401 1-769 isoform P06401-2): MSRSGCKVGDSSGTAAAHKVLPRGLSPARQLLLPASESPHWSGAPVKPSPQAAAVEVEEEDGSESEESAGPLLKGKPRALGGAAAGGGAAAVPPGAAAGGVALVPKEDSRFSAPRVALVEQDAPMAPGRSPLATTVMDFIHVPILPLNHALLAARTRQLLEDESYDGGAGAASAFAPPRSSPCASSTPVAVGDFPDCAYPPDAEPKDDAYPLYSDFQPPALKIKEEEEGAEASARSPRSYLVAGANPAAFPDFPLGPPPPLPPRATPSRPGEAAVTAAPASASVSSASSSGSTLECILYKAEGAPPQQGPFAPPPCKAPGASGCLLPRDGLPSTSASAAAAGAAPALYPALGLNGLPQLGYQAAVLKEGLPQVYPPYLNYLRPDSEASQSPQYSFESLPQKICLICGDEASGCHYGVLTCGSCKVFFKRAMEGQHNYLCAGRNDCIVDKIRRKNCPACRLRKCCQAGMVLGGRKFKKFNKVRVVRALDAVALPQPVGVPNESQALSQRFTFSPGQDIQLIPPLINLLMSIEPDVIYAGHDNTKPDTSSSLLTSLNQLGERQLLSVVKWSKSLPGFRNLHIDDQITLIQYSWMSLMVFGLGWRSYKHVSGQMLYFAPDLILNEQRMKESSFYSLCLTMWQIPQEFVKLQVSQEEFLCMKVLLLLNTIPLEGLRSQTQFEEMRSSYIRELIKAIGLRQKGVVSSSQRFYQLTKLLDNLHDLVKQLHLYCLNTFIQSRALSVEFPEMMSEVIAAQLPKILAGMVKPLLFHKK

[3] = GRX cytosol expressed in insect SF21 cells, [3H]-Dex ~0.9 nM, 4° C. overnight, Ki by Cheng-Prusoff, KL ~[…]
[4] = PRA cytosol expressed in insect SF21 cells, [3H]Prog ~0.8 nM, 4° C. overnight, Ki by Cheng-Prusoff, KL ~4.5 nM

Ki [1, 3] | Ki [2, 4] | Structure (SMILES) | Ki [1] | Ki [2]
2.4 nM | 178 nM | CC1=CC(C)(C)Nc2ccc3c(c21)C(c1cc(C)cc(C)c1)Oc1ccc(O)c(Cl)c1-3 (stereo not shown) [Example 219, 10-Chloro-9-hydroxy-5-(3,5-dimethylphenyl)-2,2,4-trimethyl-1H-2,5-dihydro-[1]benzopyrano[3,4-f]quinoline] | – | –
0.47 nM | 9.9 nM | CC1=CC(C)(C)Nc2ccc3c(c21)[C@H]([C@H]1C=CCC1)Oc1ccc(O)c(Cl)c1-3 [Example 222, (−)2,5(S)-Dihydro-9-hydroxy-10-chloro-2,2,4-trimethyl-5-(3R-cyclopentenyl)-1H-[1]benzopyrano[3,4-f]quinoline] | – | –
2.6 nM | 297 nM | CC1=CC(C)(C)Nc2ccc3c(c21)C(c1cc(Cl)cc(Cl)c1)Oc1ccc(O)c(Cl)c1-3 (stereo not shown) [Example 223, 10-Chloro-9-hydroxy-5-(3,5-dichlorophenyl)-2,2,4-trimethyl-1H-2,5-dihydro-[1]benzopyrano[3,4-f]quinoline] | – | –
57 nM | 786 nM | CC1=CC(C)(C)Nc2ccc3c(c21)[C@@H]([C@@H]1C=CCC1)Oc1ccc(O)c(Cl)c1-3 [Example 224] | – | –
155 nM | 5010 nM | CC1=CC(C)(C)Nc2ccc3c(c21)[C@@H]([C@H]1C=CCC1)Oc1ccc(O)c(Cl)c1-3 [Example 225] | – | –
2.6 nM | 220 nM | CC1=CC(C)(C)Nc2ccc3c(c21)C(c1ccc(F)c(F)c1)Oc1ccc(O)c(Cl)c1-3 (stereo not shown) [Example 226, 10-Chloro-9-hydroxy-5-(3,4-difluorophenyl)-2,2,4-trimethyl-1H-2,5-dihydro-[1]benzopyrano[3,4-f]quinoline] | – | –
5.4 nM | 29.5 nM | C=CCC1Oc2ccc(Cl)c(C=C)c2-c2ccc3c(c21)C(C)=CC(C)(C)N3 (stereo not shown) [Example 228, 5-(3-Propenyl)-9-chloro-10-ethenyl-2,2,4-trimethyl-2,5-dihydro-1H-[1]benzopyrano[3,4-f]quinoline] | – | –
34.7 nM | 1340 nM | COc1c(Cl)ccc2c1-c1ccc3c(c1C(c1ccccc1)O2)C(C)=CC(C)(C)N3 (stereo not shown) [Example 229, 9-Chloro-10-methoxy-5-phenyl-2,2,4-trimethyl-2,5-dihydro-1H[1]benzopyrano[3,4-f]quinoline] | – | –
2.4 nM | 50.3 nM | C=CCC1Oc2ccc(Cl)c(OC(F)F)c2-c2ccc3c(c21)C(C)=CC(C)(C)N3 (stereo not shown) [Example 230, 5-(3-Propenyl)-9-chloro-10-difluoromethoxy-2,2,4-trimethyl-2,5-dihydro-1H-[1]benzopyrano[3,4-f]quinoline] | – | –
30.2 nM | 1870 nM | CC1=CC(C)(C)Nc2ccc3c(c21)C(c1ccccc1)Oc1ccc(Cl)c(OC(F)F)c1-3 (stereo not shown) [Example 231, 9-Chloro-10-difluoromethoxy-5-phenyl-2,2,4-trimethyl-2,5-dihydro-1H-[1]benzopyrano[3 4-f]quinoline] | – | –
1.6 nM | 230 nM | COc1cc(F)cc2c1-c1ccc3c(c1C(c1ccccc1)O2)C(C)=CC(C)(C)N3 (stereo not shown) [Example 232, 8-Fluoro-10-methoxy-5-phenyl-2,2,4-trimethyl-2,5-dihydro-1H-[1]benzopyrano[3,4-f]quinoline] | – | –
2.5 nM | 350 nM | C=CCC1Oc2cc(F)cc(OC)c2-c2ccc3c(c21)C(C)=CC(C)(C)N3 (stereo not shown) [Example 233, 5-(3-Propenyl)-8-fluoro-10-methoxy-2,2,4-trimethyl-2,5-dihydro-1H-[1]benzopyrano[3,4-f]quinoline] | – | –

Continued, molecule first:

Structure (SMILES) | Ki [1, 3] | Ki [2, 4] | Ki [1] | Ki [2]
COc1cccc2c1-c1ccc3c(c1C(CCOC(=O)N1CCOCC1)O2)C(C)=CC(C)(C)N3 (stereo not shown) [Example 201, 2,5-Dihydro-10-methoxy-5-(2-(N-morpholinocarbonyloxy)ethyl)-2,2,4-trimethyl-1H-[1]benzopyrano[3,4-f]quinoline] | 114 nM | ≥ 10000 nM | – | –
COCCNC(=O)OCCC1Oc2cccc(OC)c2-c2ccc3c(c21)C(C)=CC(C)(C)N3 (stereo not shown) [Example 202, 2,5-Dihydro-10-methoxy-5-(2-(N-(2-methoxyethyl)aminocarbonyloxy)ethyl)-2,2,4-trimethyl-1H-[1]benzopyrano[3,4-f]quinoline] | 134 nM | ≥ 10000 nM | – | –
CNC(=O)OCCC1Oc2cccc(OC)c2-c2ccc3c(c21)C(C)=CC(C)(C)N3 (stereo not shown) [Example 203, 2,5-Dihydro-10-methoxy-5-(2-(N-methyaminocarbonyloxyoxy)ethyl)-2,2,4-trimethyl-1H-[1]benzopyrano[3,4-f]quinoline] | 85 nM | ≥ 10000 nM | – | –
COc1cccc2c1-c1ccc3c(c1C(CCOC(=O)N(C)C)O2)C(C)=CC(C)(C)N3 (stereo not shown) [Example 204, 2,5-Dihydro-10-methoxy-5-(2-(N,N-dimethylaminocarbonyloxy)ethyl)-2,2,4-trimethyl-1H-[1]benzopyrano[3,4-f]quinoline] | 74 nM | ≥ 10000 nM | – | –
COCOCCC1Oc2cccc(OC)c2-c2ccc3c(c21)C(C)=CC(C)(C)N3 (stereo not shown) [Example 205, 2,5-Dihydro-10-methoxy-5-(2-methoxymethoxyethyl)-2,2,4-trimethyl-1H-[1]benzopyrano[3,4-f]quinoline] | 11.4 nM | ≥ 10000 nM | – | –
CCOC(=O)NCC1Oc2cccc(OC)c2-c2ccc3c(c21)C(C)=CC(C)(C)N3 (stereo not shown) [Example 207] | 22 nM | ≥ 10000 nM | – | –
C=C=C(C)C1Oc2cccc(OC)c2-c2ccc3c(c21)C(C)=CC(C)(C)N3 (stereo not shown) [Example 210, 2,5-Dihydro-10-methoxy-5-(-methylpropa-1,2-dienyl)-2,2,4-trimethyl-1H-[1]benzopyrano[3,4-f]quinoline] | – | – | 21 nM | 710 nM
COc1cccc2c1-c1ccc3c(c1C(c1cc(F)c(F)c(F)c1)O2)C(C)=CC(C)(C)N3 (stereo not shown) [Example 211] | 5.3 nM | ≥ 10000 nM | – | –
COc1cccc2c1-c1ccc3c(c1C(c1ccccn1)O2)C(C)=CC(C)(C)N3 (stereo not shown) [Example 213, 2,5-Dihydro-10-methoxy-5-(2-pyridyl)-2,2,4-trimethyl-1H-[1]benzopyrano[3,4-f]quinoline] | 67 nM | ≥ 10000 nM | – | –
COc1cccc2c1-c1ccc3c(c1C(c1cccnc1)O2)C(C)=CC(C)(C)N3 (stereo not shown) [Example 214, 2,5-Dihydro-10-methoxy-5-(3-pyridyl)-2,2,4-trimethyl-1H-[1]benzopyrano[3,4-f]quinoline] | 5.7 nM | ≥ 10000 nM | – | –
COc1cccc2c1-c1ccc3c(c1C(c1ccncc1)O2)C(C)=CC(C)(C)N3 (stereo not shown) [Example 215, 2,5-Dihydro-10-methoxy-5-(4-pyridyl)-2,2,4-trimethyl-1H-[1]benzopyrano[3,4-f]quinoline] | 20 nM | ≥ 10000 nM | – | –
C=CCC1Oc2ccc(O)c(Cl)c2-c2ccc3c(c21)C(C)=CC(C)(C)N3 (stereo not shown) [Example 216, 10-Chloro-9-hydroxy-5-(3-propenyl)-2,2,4-trimethyl-1H-2,5-dihydro-[1]benzopyrano[3,4-f]quinoline] | – | 7.6 nM | 0.58 nM | –
CC1=CC(C)(C)Nc2ccc3c(c21)C(c1ccccc1)Oc1ccc(O)c(Cl)c1-3 (stereo not shown) [Example 217, 10-Chloro-9-hydroxy-5-phenyl-2,2,4-trimethyl-1H-2,5-dihydro-[1]benzopyrano[3,4-f]quinoline] | 1 nM | 65.1 nM | – | –
CC1=CC(C)(C)Nc2ccc3c(c21)C(c1cccc(C(F)(F)F)c1)Oc1ccc(O)c(Cl)c1-3 (stereo not shown) [Example 218, 10-Chloro-9-hydroxy-5-(3-trifluoromethylphenyl)-2,2,4-trimethyl-1H-2,5-dihydro-[1]benzopyrano[3,4-f]quinoline] | 1.6 nM | 227 nM | – | –
